Measurements published in PubChem BioAssay (NCI).
Where “and” joins values, the source holds several entries; their conditions need not be identical. Equal entries are not always repeated.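 In this assay, cells in 96-well plates receive the compound at five concentrations for 48 hours. Endpoints are linearly interpolated between the surrounding concentrations. Here, GI50 denotes the concentration required for 50% inhibition of growth. TGI: concentration producing complete growth inhibition.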

Key:
Test in all cases: growth of human tumour cells (NCI), 48 h
RXF 393 renal = tested on: RXF 393 renal
KM12 colon = tested on: KM12 colon
HCT-116 colon = tested on: HCT-116 colon
CCRF-CEM leukemia = tested on: CCRF-CEM leukemia
NCI-H460 lung = tested on: NCI-H460 lung
NCI-H522 lung = tested on: NCI-H522 lung
CAKI-1 renal = tested on: CAKI-1 renal
HL-60(TB) leukemia = tested on: HL-60(TB) leukemia
M14 melanoma = tested on: M14 melanoma
OVCAR-8 ovarian = tested on: OVCAR-8 ovarian
UACC-257 melanoma = tested on: UACC-257 melanoma
SW-620 colon = tested on: SW-620 colon
UO-31 renal = tested on: UO-31 renal
SR leukemia = tested on: SR leukemia
BT-549 breast = tested on: BT-549 breast
SF-295 CNS = tested on: SF-295 CNS
HS 578T breast = tested on: HS 578T breast
IGROV1 ovarian = tested on: IGROV1 ovarian
NCI-H226 lung = tested on: NCI-H226 lung
PC-3 prostate = tested on: PC-3 prostate
SF-268 CNS = tested on: SF-268 CNS
OVCAR-5 ovarian = tested on: OVCAR-5 ovarian
HOP-62 NSCLC = tested on: HOP-62 NSCLC
K-562 leukemia = tested on: K-562 leukemia
HT29 colon = tested on: HT29 colon
EKVX NSCLC = tested on: EKVX NSCLC
ACHN renal = tested on: ACHN renal
UACC-62 melanoma = tested on: UACC-62 melanoma
DU-145 prostate = tested on: DU-145 prostate
MOLT-4 leukemia = tested on: MOLT-4 leukemia
COLO 205 colon = tested on: COLO 205 colon
OVCAR-4 ovarian = tested on: OVCAR-4 ovarian
786-0 renal = tested on: 786-0 renal
SN12C renal = tested on: SN12C renal
RPMI-8226 leukemia = tested on: RPMI-8226 leukemia
A498 renal = tested on: A498 renal
MCF7 breast = tested on: MCF7 breast
OVCAR-3 ovarian = tested on: OVCAR-3 ovarian
HCC-2998 colon = tested on: HCC-2998 colon
MDA-MB-231 breast = tested on: MDA-MB-231 breast
TK-10 renal = tested on: TK-10 renal
SNB-19 CNS = tested on: SNB-19 CNS
HCT-15 colon = tested on: HCT-15 colon
SK-MEL-28 melanoma = tested on: SK-MEL-28 melanoma
MDA-MB-435 = tested on: MDA-MB-435
A549 NSCLC = tested on: A549 NSCLC
LOX IMVI melanoma = tested on: LOX IMVI melanoma
NCI-H23 lung = tested on: NCI-H23 lung
MALME-3M melanoma = tested on: MALME-3M melanoma
NCI/ADR-RES ovarian = tested on: NCI/ADR-RES ovarian
HOP-92 NSCLC = tested on: HOP-92 NSCLC
SF-539 CNS = tested on: SF-539 CNS
SK-OV-3 ovarian = tested on: SK-OV-3 ovarian
U251 CNS = tested on: U251 CNS
SK-MEL-5 melanoma = tested on: SK-MEL-5 melanoma

Cc1ccnc2[nH]c(-c3cccc4ccccc34)cc(=O)c12
TGI (RXF 393 renal): > 100 µM | TGI (KM12 colon): 3.85 µM | TGI (HCT-116 colon): 14.2 µM | TGI (CCRF-CEM leukemia): > 100 µM | TGI (NCI-H460 lung): > 100 µM | TGI (NCI-H522 lung): 0.00758 µM and 0.0471 µM | TGI (CAKI-1 renal): > 100 µM | TGI (HL-60(TB) leukemia): 0.00697 µM | GI50 (M14 melanoma): 0.0132 µM | TGI (M14 melanoma): > 100 µM | GI50 (OVCAR-8 ovarian): 0.0169 µM | TGI (OVCAR-8 ovarian): 16 µM | TGI (UACC-257 melanoma): > 100 µM | TGI (SW-620 colon): > 100 µM | GI50 (UO-31 renal): 0.0368 µM | TGI (UO-31 renal): 53.8 µM | TGI (SR leukemia): 34.8 µM | TGI (BT-549 breast): 72 µM | GI50 (SF-295 CNS): 0.0107 µM | TGI (SF-295 CNS): > 100 µM | GI50 (HS 578T breast): 0.0173 µM | TGI (HS 578T breast): 92.7 µM | GI50 (IGROV1 ovarian): 0.0585 µM | TGI (IGROV1 ovarian): 50 µM | TGI (NCI-H226 lung): 33.9 µM | GI50 (PC-3 prostate): 0.0199 µM | GI50 (SF-268 CNS): 15.8 µM | TGI (SF-268 CNS): > 100 µM | GI50 (OVCAR-5 ovarian): 0.0813 µM | TGI (OVCAR-5 ovarian): > 100 µM | GI50 (HOP-62 NSCLC): 7.39 µM | TGI (HOP-62 NSCLC): > 100 µM | TGI (K-562 leukemia): 63.9 µM | TGI (HT29 colon): 0.0785 µM and 0.0628 µM | GI50 (EKVX NSCLC): 0.0151 µM | TGI (EKVX NSCLC): 34.6 µM | GI50 (ACHN renal): 0.039 µM | TGI (ACHN renal): > 100 µM | TGI (UACC-62 melanoma): 26.5 µM | GI50 (DU-145 prostate): 0.0284 µM | TGI (DU-145 prostate): > 100 µM | TGI (MOLT-4 leukemia): > 100 µM | GI50 (COLO 205 colon): 0.015 µM | TGI (COLO 205 colon): 0.0992 µM and 0.205 µM | GI50 (OVCAR-4 ovarian): 17.6 µM | TGI (OVCAR-4 ovarian): > 100 µM | TGI (786-0 renal): > 100 µM | GI50 (SN12C renal): 0.678 µM | TGI (SN12C renal): > 100 µM | TGI (RPMI-8226 leukemia): 28.6 µM | TGI (A498 renal): 0.0681 µM | GI50 (MCF7 breast): 0.0431 µM | TGI (MCF7 breast): 28 µM | TGI (OVCAR-3 ovarian): 0.0115 µM | GI50 (HCC-2998 colon): 0.101 µM | TGI (HCC-2998 colon): 0.363 µM and 0.707 µM | GI50 (MDA-MB-231 breast): 0.0656 µM | TGI (MDA-MB-231 breast): 6.8 µM | GI50 (TK-10 renal): 25.8 µM | TGI (TK-10 renal): > 100 µM | TGI (SNB-19 CNS): > 100 µM | GI50 (HCT-15 colon): 0.0152 µM | TGI (HCT-15 colon): > 100 µM | TGI (SK-MEL-28 melanoma): 40.2 µM | TGI (MDA-MB-435): 0.000495 µM | GI50 (A549 NSCLC): 0.0132 µM | TGI (A549 NSCLC): > 100 µM | TGI (LOX IMVI melanoma): 17.1 µM | GI50 (NCI-H23 lung): 0.0315 µM | TGI (NCI-H23 lung): > 100 µM | TGI (MALME-3M melanoma): 0.0474 µM

COc1cccc(-c2cc(=O)c3cc(NC(C)=O)ccc3[nH]2)c1
TGI (KM12 colon): > 100 µM | TGI (CCRF-CEM leukemia): 9.27 µM | TGI (NCI-H460 lung): > 100 µM | TGI (NCI-H522 lung): > 100 µM | TGI (CAKI-1 renal): > 100 µM | TGI (M14 melanoma): > 100 µM | TGI (OVCAR-8 ovarian): > 100 µM | TGI (UACC-257 melanoma): > 100 µM | TGI (SW-620 colon): > 100 µM | TGI (UO-31 renal): > 100 µM | TGI (SR leukemia): 6 µM | TGI (BT-549 breast): > 100 µM | TGI (NCI/ADR-RES ovarian): > 100 µM | TGI (HOP-92 NSCLC): > 100 µM | TGI (HS 578T breast): 8.35 µM | TGI (IGROV1 ovarian): > 100 µM | TGI (PC-3 prostate): > 100 µM | TGI (SF-268 CNS): > 100 µM | TGI (OVCAR-5 ovarian): > 100 µM | TGI (HOP-62 NSCLC): > 100 µM | TGI (SF-539 CNS): 44.7 µM | TGI (HT29 colon): > 100 µM | TGI (EKVX NSCLC): > 100 µM | TGI (ACHN renal): > 100 µM | TGI (SK-OV-3 ovarian): > 100 µM | TGI (UACC-62 melanoma): > 100 µM | TGI (U251 CNS): > 100 µM | TGI (MOLT-4 leukemia): > 100 µM | TGI (COLO 205 colon): > 100 µM | GI50 (OVCAR-4 ovarian): 19.6 µM | TGI (OVCAR-4 ovarian): > 100 µM | TGI (786-0 renal): > 100 µM | TGI (SN12C renal): > 100 µM | TGI (RPMI-8226 leukemia): 96.2 µM | TGI (A498 renal): 61 µM | TGI (MCF7 breast): > 100 µM | TGI (HCC-2998 colon): > 100 µM | TGI (MDA-MB-231 breast): > 100 µM | TGI (SK-MEL-5 melanoma): 56 µM | TGI (TK-10 renal): > 100 µM | TGI (SNB-19 CNS): > 100 µM | TGI (HCT-15 colon): > 100 µM | TGI (SK-MEL-28 melanoma): > 100 µM | TGI (MDA-MB-435): 17.1 µM | TGI (A549 NSCLC): > 100 µM | TGI (LOX IMVI melanoma): > 100 µM | TGI (NCI-H23 lung): > 100 µM | TGI (MALME-3M melanoma): > 100 µM
